According to article doi:10.1101/2022.09.03.506457v1 (biorxiv, 2022):

Molecular target: T1, MjFH (MjFHαβ), holo, Fe-S reconstituted (Methanocaldococcus jannaschii, UniProt Q58034+Q58690)
T1 sequence (Q58690 1-285): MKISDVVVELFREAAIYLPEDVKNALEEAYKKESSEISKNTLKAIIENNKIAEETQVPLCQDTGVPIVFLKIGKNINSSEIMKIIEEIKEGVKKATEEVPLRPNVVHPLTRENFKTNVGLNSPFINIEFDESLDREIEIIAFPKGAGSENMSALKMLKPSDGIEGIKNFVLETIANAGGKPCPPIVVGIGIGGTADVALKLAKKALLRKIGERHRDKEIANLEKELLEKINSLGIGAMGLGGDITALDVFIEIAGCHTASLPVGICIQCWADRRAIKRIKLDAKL
T1 sequence (Q58034 1-195): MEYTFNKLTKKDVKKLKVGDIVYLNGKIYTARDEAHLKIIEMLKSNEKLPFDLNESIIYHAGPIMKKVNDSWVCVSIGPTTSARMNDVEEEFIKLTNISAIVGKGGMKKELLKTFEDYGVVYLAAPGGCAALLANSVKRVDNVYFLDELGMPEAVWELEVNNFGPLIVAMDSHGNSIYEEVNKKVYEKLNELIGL
Type: biochemical
Conditions: pH 7.2, 50 mM Tris-HCl, 70 °C

Km: 2.79 ± 0.397 mM
Compound: O=C(O)/C=C/C(=O)O [fumarate]
